Experimental findings from patent US7132417B2, “2-phenyl-1-[4-(2-aminoethoxy)-benzyl]-indoles as estrogenic agents” (Wyeth, priority 1996, dated 2006) are described below.

One assay has as its system Ishikawa cells. Put plainly: Ishikawa cell alkaline phosphatase assay. It counts as cell-based, human. As to the method: Cells were treated for 48 h prior to assay. […] Sample population for at each dose was n=8. […] Plates are placed at -80° C. for a minimum of 15 minutes. Plates are thawed at 37° C. followed by the addition of 150 μL of 0.1 M Tris-HCl, pH 9.8, containing 4 mM para-nitrophenylphosphate (pNPP) to each well (final concentration, 3 mM pNPP). Absorbance and slope calculations were made using the […] Application program (Bio-Tek Instruments, Inc., Winooski, Vt.). […] The four listed in the following were used as reference standards: A description of these methods is described by Holinka, […]., Kuramoto, H. and Gurpide, E. (1986) Effects of steroid hormones and antisteroids on alkaline phosphatase activity in human endometrial cancer cells (Ishikawa Line). Cancer Research, 46:2771-2774, and by […]. and […] simple and sensitive microtiter plate estrogen bioassay based on stimulation alkaline phosphatase in Ishikawa cells; […] Endocrinology, 6:2757-2762.

Assay [1] concerns Female Sprague Dawley CD rats, ovx. Put plainly: 6-week ovariectomized rat model. It counts as in vivo. The note with it: 2 μg/rat, s.c., following 6 weeks of treatment, mean ± SEM. An excerpt: Method No. 20 6-Week Ovariectomized Rat Model
Female Sprague Dawley CD rats, ovx or sham ovx, were obtained 1 day after surgery from Taconic Farm (weight range 240–275 g). They were housed 3 or 4 rats/cage in a room on a 14/10 (light/dark) schedule and provided with food (Purina 500 rat chow) and water ad libitum. Treatment for all studies began 1 day after the animals arrival and dosed 5 or 7 days per week as indicated for 6 weeks. A group of age matched sham operated rats not receiving any treatment served as an intact, estrogen replete control group for each study. All treatments were prepared in 1% tween 80 in normal saline at defined concentrations so that the treatment volume was 0.1 mL/100 g body weight. 17-beta estradiol was dissolved in corn oil (20 uG/mL) and delivered subcutaneously, 0.1 mL/rat. All dosages were adjusted at three week intervals according to group mean body weight measurements.
Five weeks after the initiation of treatment and one week prior to the termination of the study, each rat was evaluated for bone mineral density (BMD). The BMD's of the proximal tibiae (PT) and fourth lumbar vertabrae (L4) were measured in anesthetized rats using a dual energy X-ray absorptiometer (Eclipse XR-26, Norland Corp. Ft. Atkins, Wis.). […] Total cholesterol is determined using a Boehringer-Mannheim Hitachi 911 clinical analyzer using the Cholesterol/HP kit. […]

As to `C[C@]12CC[C@@H]3c4ccc(O)cc4CC[C@H]3[C@@H]1CC[C@@H]2O` [17β-estradiol], the “% Activation” value in the assay with Ishikawa cells (compound alone, percent of response related to 1 nM 17β-estradiol) is on record as 100%. Moreover, in the assay with Ishikawa cells (reference standards, read-out: ED50 values (95% C.I.), estrogenic activity by the alkaline phosphatase method), the EC50 amounted to 0.03 nM. In addition, the Cholesterol in assay [1] is 95.5 ± 3.9 mg/dL.
